Test results as given in article PMC3500438 (Organic letters, 2012).
Entries after “also recorded” stand apart in the source; their conditions may differ.

Assays:
[1] = test system: rat PDE4 (Rolipram); assay: rat Rolipram radioligand binding; design: species or system Wistar rat; details: for IC50: read-out: rat Rolipram IC50; for IC50 / Ki: Wistar rat brain, 1.8 nM [3H] rolipram, 1% DMSO, 60 min at 4 °C, 50 mM Tris-HCl, pH 7.4; for Ki: read-out: rat Rolipram Ki
[2] = target: 5-HT2B (Homo sapiens, UniProt P41595); assay: Lead Profiling screen radioligand binding, 5-HT2B
Sequence of 5-HT2B (P41595 whole entry, species assumed): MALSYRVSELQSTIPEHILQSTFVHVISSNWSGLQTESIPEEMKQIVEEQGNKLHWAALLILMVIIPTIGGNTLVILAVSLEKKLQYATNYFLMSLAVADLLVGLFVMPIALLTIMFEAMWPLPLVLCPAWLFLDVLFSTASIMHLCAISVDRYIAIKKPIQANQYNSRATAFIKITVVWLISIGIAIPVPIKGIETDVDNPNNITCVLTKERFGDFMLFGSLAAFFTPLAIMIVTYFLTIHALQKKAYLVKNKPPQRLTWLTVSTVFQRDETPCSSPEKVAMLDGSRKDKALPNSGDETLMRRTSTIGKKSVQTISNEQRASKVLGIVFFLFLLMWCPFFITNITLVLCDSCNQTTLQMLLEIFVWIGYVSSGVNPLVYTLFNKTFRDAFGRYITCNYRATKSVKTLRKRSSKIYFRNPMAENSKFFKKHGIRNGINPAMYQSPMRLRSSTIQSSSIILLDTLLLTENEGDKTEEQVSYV

[3] = test system: healthy cells; details: cited from earlier work
[4] = cited from earlier work
[5] = test system: 68 GPCRs, ion channels and transporters; assay: Lead Profiling screen; assay type: binding; details: 10 μM, 68 targets
[6] = test system: 97 kinases (both wild-type and mutants); assay: KINOMEscan panel; assay type: binding; details: 10 μM

Cc1nc2ccccc2c2cc[nH]c12 [compound 1, marinoquinoline A]
PDE4 activity (in words) ([1]; rat PDE4 (Rolipram) and human PDE4): inactive | IC50 [1]: > 100 µM | Ki [1]: > 100 µM

Nc1ncnc2c1ncn2Cc1nc2ccccc2c2cc[nH]c12 [compound 6, aplidiopsamine A]
5-HT2B activity in radioligand binding panel ([2]; 10 μM): 62% | Ki ([2]; read-out: 5-HT2B Ki, full concentration-response-curve): ~10 µM | toxicity to healthy cells / cytotoxicity [3]: without toxicity to healthy cells; also recorded: not be cytotoxic | antimalarial activity [4]: potent antimalarial agent | PDE4/Rolipram activity in radioligand binding panel ([1]; 10 μM): 74% | IC50 [1]: 3.3 µM | Ki [1]: 1.2 µM | ancillary pharmacology in Lead Profiling screen [5]: activity at only two targets | activity in KINOMEscan panel [6]: uniformly inactive
